From US8765744B2, “Azaspirohexanones” (Boehringer Ingelheim International GmbH, priority 2010, dated 2014)

Molecular target: 11β-HSD1 (Homo sapiens (Human), UniProt P28845)
Conditions: read-out: Inhibitory activity on 11β-HSD 1, IC50; human liver microsomes; 1 hour at 37° C.; NADPH 200 μM, cortisone 80 nM; HTRF cortisol detection
Description: The biological properties (inhibitory activity on 11β-hydroxysteroid dehydrogenase 1) of the new compounds may be investigated as follows:
Briefly, compounds are incubated for 1 hour at 37° C. in Tris buffer (20 mM tris, 5 mM EDTA, pH 6.0) containing NADPH (200 μM) and cortisone (80 nM). Cortisol generated in the reaction is then detected with a competitive immunoassay, involving two HTRF conjugates: cortisol linked to XL665 and anti-cortisol antibody labeled with Europium cryptate. The incubation period for detection reaction is typically 2 hours. […] The ratio of the two emission signals is then calculated (Em665*10000/Em615). […] Each assay also contains a calibration curve with cortisol to transform the fluorescent data into cortisol concentrations. Percent inhibition (% CTL) of each compound is determined relative to the carbenoxolone signal and IC50 curves are generated.

Chain of 11β-HSD1 (P28845 whole entry): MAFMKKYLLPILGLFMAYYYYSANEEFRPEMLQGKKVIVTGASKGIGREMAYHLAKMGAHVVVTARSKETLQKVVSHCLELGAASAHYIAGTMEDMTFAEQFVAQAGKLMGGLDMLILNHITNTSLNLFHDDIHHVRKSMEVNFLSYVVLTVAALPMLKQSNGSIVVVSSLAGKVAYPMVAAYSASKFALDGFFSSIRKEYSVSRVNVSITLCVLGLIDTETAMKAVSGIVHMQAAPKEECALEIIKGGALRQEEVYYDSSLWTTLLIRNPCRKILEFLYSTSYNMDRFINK

Compound	IC50 [µM]
C[C@@H](c1ccc(-c2ccn(C)c(=O)c2)cc1)N1CCC2(CCC3(CC2)OCC(C)(C)CO3)OC1=O [Example 16, 12,12-Dimethyl-3-{(S)-1-[4-(1-methyl-2-oxo-1,2-dihydro-pyridin-4-yl)-phenyl]-ethyl}-1,10,14-trioxa-3-aza-dispiro[5.2.5.2]hexadecan-2-one]	> 10
C[C@@H](c1ccc(-c2ccc(C(=O)N(C)C)nc2)cc1)N1CCC2(CCC3(CC2)OCC(C)(C)CO3)OC1=O [Example 17, 5-{4-[(S)-1-(12,12-Dimethyl-2-oxo-1,10,14-trioxa-3-aza-dispiro[5.2.5.2]hexadec-3-yl)-ethyl]-phenyl}-pyridine-2-carboxylic acid dimethylamide]	> 10
